Experimental findings from BindingDB's records for doi:10.1021/jm401509e (Pfizer, 2014) are described below.

A short description of assay [1]: Inhibition of CRTH2 receptor-mediated chemotaxis in human basophils.
A short description of assay [2]: Antagonist activity at CRTh2 in human peripheral blood assessed as inhibition of PGD2-induced eosinophil shape change at room temperature by flow cytometry. Background: Flow cytometry measures light scatter and fluorescence of single cells or particles in a stream.

As a reminder, the IC50 is the concentration that inhibits the measured activity by half. Regarding `Cc1c(-c2cn(C(C)C)c(=O)c3ccccc23)c2cc(F)ccc2n1CC(=O)O`, the half-inhibitory concentration (IC50) in assay [1] turned out to be 1.2 nM; in assay [2] it was 8 nM. On to `Cc1c(-c2cn(CC(C)(C)C)c(=O)c3ccccc23)c2cc(F)ccc2n1CC(=O)O`, for which the IC50 in assay [2] worked out at 18 nM. On to `Cc1c(-c2cn(CC(F)(F)F)c(=O)c3ccccc23)c2cc(F)ccc2n1CC(=O)O`, for which, in assay [2], the 50% inhibitory concentration (IC50) came to 19 nM. On the same count and under the same terms, the same measure for `Cc1c(-c2cn(CCCC(F)(F)F)c(=O)c3ccccc23)c2cc(F)ccc2n1CC(=O)O`: 3 nM.
